Results published in paper PMC7515716 (2020).

What was measured:
[1] = tested on: ribD/pbuE*7U FMN riboswitch (RNA, riboswitch) AAAUUAAAUAGCUAUUAUCACGAUUUUUCGGGGCAGGGUGGAAAUCCCGACCGGCGGUAGUAAAGCACAUUUGCUUUAGAGCCCGUGACCCGUGUGCAUAAGCACGCGGUGGAUUCAGUUUAAGCUGAAGCCGACAGUGAAAGUCUGGAUGGGAGAAAAAUCCUGAUUACAAAAUUUGUUUAUGACAUUUUUUGUAAUCAGGAUUUUUUUAUUUAUCAAAACAUUUAAGUAAAGGAGUUUGUUAUGUUUUUUUUGGCCAGUGAAUUCGAGCUCGGUACCCGGGGAUCCUCUAGAAAUAUGGAUUACUUGGUAGAACAGCAAUCUACUCGACCUGCAGGCAUGCAAGCUUGGCGUAAUCAUGGUCAUAGCUGUUUCCUGUGUUUAUCCGCUCACAAUUCCACACAACAUACGAGCCGGAAGCAUAAAG; assay: SPRINT: multiple-turnover transcription read-through, Cas13a fluorescence; conditions: 70 mM Na+ (NaCl), 10 mM Mg2+; SPRINT buffer, 37 °C; low-affinity response
[2] = tested on: xpt/pbuE*6U guanine riboswitch (RNA, riboswitch) AAAUUAAAUAGCUAUUAUCACGAUUUUUAUAAUCGCGUGGAUAUGGCACGCAAGUUUCUACCGGGCACCGUAAAUGUCCGACUAAAAAUCCUGAUUACAAAAUUUGUUUAUGACAUUUUUUGUAAUCAGGAUUUUUUAUUUAUCAAAACAUUUAAGUAAAGGAGUUUGUUAUGUUUUUUUUGGCCAGUGAAUUCGAGCUCGGUACCCGGGGAUCCUCUAGAAAUAUGGAUUACUUGGUAGAACAGCAAUCUACUCGACCUGCAGGCAUGCAAGCUUGGCGUAAUCAUGGUCAUAGCUGUUUCCUGUGUUUAUCCGCUCACAAUUCCACACAACAUACGAGCCGGAAGCAUAAAG; assay: as above; conditions: 70 mM Na+ (NaCl), 2.5 mM Mg2+

| binding [1] | binding [2] | SMILES |
| --- | --- | --- |
| weak | – | Cc1cc2nc3c(=O)[nH]c(=O)nc-3n(C[C@H](O)[C@H](O)[C@H](O)COP(=O)(O)OP(=O)(O)OC[C@H]3O[C@@H](n4cnc5c(N)ncnc54)[C@H](O)[C@@H]3O)c2cc1C |
| – | weak | CNc1nc2[nH]cnc2c(=O)[nH]1 |
